Data taken from ChEMBL document CHEMBL3991601, “The target landscape of clinical kinase drugs” (Science, 2017).
The source made the active and inactive calls. For most assays here, no stated cut-off is given here; in the data, actives have a measured Kd and inactives only a lower limit.

Columns and labels:
[1] = target: Serine/threonine-protein kinase 10 (Homo sapiens, UniProt O94804)
[2] = target: Tyrosine-protein kinase HCK (Homo sapiens, UniProt P08631)
[3] = target: TRAF2 and NCK-interacting protein kinase (Homo sapiens, UniProt Q9UKE5)
[4] = target: cAMP-dependent protein kinase catalytic subunit beta (Homo sapiens, UniProt P22694)
[5] = target: Epithelial discoidin domain-containing receptor 1 (Homo sapiens, UniProt Q08345)
[6] = target: T1, Very long-chain specific acyl-CoA dehydrogenase, mitochondrial (Homo sapiens, UniProt P49748)
T1 sequence (P49748 whole entry): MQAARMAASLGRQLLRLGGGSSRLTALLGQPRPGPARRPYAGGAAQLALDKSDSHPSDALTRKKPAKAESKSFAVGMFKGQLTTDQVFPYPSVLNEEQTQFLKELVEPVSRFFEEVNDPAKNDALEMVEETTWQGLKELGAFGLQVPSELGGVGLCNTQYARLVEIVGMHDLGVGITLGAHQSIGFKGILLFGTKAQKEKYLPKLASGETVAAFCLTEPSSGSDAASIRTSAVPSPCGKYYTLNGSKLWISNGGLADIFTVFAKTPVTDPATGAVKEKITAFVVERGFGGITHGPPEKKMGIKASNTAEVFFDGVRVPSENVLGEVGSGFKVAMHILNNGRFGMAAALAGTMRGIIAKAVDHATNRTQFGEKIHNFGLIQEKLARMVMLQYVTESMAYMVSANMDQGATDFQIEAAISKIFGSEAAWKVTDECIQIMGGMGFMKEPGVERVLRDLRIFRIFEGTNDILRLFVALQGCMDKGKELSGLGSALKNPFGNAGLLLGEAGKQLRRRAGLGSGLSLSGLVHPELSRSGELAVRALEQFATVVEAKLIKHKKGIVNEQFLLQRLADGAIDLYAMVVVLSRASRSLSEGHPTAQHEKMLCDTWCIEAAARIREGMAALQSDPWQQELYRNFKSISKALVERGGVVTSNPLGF

[7] = target: T2, Breakpoint cluster region protein (Homo sapiens, UniProt P11274)
T2 sequence (P11274 whole entry): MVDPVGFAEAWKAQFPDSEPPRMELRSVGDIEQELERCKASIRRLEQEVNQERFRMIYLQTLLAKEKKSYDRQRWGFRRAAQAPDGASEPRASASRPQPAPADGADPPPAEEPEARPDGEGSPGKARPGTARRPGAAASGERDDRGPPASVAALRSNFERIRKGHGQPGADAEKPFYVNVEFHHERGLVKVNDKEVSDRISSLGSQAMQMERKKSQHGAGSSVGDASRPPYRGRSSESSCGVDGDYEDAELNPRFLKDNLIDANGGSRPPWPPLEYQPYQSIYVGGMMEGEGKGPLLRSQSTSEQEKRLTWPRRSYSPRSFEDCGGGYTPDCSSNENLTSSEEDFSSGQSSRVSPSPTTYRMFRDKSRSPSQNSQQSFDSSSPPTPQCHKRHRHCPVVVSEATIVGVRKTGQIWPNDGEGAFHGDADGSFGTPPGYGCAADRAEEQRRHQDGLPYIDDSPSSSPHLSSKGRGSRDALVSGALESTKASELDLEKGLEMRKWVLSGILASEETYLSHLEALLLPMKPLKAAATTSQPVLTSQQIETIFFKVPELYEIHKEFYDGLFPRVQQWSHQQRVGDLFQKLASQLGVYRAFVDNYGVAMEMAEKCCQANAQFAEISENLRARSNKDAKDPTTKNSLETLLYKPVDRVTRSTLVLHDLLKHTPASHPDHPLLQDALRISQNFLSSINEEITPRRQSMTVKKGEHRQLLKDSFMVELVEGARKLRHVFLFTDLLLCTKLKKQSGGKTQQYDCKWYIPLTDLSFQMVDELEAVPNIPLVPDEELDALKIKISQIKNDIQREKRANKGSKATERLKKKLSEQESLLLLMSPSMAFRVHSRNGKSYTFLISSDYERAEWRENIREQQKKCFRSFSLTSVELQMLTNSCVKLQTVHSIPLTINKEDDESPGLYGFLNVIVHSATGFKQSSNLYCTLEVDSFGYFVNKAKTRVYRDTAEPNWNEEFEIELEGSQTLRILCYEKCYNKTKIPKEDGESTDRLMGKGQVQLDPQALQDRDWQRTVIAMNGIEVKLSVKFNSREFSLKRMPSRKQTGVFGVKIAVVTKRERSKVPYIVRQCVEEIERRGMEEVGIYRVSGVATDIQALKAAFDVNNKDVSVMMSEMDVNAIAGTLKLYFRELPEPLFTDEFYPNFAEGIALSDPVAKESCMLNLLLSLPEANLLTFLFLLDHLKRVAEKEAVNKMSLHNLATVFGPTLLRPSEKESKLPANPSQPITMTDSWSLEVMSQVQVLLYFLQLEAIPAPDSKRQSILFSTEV

[8] = target: Interleukin-1 receptor-associated kinase 1 (Homo sapiens, UniProt P51617)
[9] = target: RAC-gamma serine/threonine-protein kinase (Homo sapiens, UniProt Q9Y243)
[10] = target: Ribosomal protein S6 kinase alpha-3 (Homo sapiens, UniProt P51812)
Chain of Ribosomal protein S6 kinase alpha-3 (P51812 whole entry): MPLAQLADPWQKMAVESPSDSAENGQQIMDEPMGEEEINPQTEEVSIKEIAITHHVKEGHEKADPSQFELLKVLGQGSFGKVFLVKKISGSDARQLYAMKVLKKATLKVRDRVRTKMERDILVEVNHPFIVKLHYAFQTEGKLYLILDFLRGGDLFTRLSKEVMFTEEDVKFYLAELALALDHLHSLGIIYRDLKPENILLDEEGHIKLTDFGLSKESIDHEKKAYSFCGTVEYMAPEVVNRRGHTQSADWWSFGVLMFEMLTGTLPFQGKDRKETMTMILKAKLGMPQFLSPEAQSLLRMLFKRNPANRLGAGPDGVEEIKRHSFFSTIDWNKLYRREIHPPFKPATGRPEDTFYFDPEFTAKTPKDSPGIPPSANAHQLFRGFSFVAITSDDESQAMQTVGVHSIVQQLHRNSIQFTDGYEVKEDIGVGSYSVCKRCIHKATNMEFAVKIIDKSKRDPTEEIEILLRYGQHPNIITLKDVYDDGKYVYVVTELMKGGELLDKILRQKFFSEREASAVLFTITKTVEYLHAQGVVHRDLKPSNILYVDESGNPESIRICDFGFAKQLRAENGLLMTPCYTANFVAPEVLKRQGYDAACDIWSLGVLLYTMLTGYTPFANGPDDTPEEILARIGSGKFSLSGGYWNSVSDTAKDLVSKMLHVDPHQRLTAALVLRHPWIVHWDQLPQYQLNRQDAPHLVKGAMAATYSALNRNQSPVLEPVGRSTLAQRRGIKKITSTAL

Chain of Tyrosine-protein kinase HCK (P08631 whole entry): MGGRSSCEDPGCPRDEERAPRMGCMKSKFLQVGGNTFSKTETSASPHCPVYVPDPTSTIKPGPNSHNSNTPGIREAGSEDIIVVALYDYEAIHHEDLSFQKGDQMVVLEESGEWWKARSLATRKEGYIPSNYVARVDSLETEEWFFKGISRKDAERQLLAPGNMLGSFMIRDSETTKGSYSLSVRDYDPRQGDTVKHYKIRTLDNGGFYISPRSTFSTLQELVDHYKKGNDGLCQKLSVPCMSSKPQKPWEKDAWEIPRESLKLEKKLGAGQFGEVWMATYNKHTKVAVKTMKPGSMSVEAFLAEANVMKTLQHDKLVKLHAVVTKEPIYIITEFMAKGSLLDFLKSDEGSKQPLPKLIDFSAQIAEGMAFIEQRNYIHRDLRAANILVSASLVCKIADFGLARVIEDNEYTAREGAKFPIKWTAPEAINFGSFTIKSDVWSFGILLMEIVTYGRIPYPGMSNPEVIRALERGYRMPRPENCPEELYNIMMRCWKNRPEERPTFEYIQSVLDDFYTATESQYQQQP
Chain of TRAF2 and NCK-interacting protein kinase (Q9UKE5 whole entry): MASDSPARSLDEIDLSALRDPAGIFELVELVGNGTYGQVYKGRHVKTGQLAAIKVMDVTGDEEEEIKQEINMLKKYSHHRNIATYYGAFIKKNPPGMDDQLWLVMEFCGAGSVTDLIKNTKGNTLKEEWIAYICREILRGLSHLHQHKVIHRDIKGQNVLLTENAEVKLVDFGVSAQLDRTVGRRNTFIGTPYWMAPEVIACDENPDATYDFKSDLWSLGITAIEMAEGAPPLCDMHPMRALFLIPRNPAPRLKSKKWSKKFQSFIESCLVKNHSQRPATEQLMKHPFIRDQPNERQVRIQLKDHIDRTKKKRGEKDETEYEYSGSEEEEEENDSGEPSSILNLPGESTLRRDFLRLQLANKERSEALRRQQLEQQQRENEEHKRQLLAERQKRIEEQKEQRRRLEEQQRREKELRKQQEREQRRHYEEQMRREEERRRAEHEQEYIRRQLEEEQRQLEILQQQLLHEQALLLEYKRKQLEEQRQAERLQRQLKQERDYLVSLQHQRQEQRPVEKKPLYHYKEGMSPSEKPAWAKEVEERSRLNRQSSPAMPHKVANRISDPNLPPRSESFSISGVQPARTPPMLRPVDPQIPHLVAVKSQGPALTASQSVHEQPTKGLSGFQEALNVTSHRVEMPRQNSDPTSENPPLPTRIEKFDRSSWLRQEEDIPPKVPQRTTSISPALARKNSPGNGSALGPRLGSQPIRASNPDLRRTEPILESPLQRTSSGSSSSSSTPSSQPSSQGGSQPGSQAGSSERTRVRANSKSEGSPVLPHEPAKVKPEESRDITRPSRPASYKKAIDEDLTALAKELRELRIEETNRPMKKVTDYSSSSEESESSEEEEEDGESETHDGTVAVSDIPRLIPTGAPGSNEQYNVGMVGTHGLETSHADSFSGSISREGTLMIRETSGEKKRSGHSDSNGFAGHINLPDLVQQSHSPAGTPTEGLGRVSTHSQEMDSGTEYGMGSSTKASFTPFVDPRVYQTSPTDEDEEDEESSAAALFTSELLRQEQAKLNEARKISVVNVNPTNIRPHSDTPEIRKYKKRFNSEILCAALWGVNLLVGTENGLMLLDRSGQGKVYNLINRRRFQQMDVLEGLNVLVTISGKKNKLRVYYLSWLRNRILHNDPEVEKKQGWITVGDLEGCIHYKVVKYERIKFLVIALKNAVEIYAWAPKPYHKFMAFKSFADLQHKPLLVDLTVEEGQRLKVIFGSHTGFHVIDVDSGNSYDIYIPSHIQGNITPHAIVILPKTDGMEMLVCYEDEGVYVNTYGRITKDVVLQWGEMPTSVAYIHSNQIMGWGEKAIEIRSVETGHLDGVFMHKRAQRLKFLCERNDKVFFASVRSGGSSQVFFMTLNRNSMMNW
Chain of Interleukin-1 receptor-associated kinase 1 (P51617 whole entry): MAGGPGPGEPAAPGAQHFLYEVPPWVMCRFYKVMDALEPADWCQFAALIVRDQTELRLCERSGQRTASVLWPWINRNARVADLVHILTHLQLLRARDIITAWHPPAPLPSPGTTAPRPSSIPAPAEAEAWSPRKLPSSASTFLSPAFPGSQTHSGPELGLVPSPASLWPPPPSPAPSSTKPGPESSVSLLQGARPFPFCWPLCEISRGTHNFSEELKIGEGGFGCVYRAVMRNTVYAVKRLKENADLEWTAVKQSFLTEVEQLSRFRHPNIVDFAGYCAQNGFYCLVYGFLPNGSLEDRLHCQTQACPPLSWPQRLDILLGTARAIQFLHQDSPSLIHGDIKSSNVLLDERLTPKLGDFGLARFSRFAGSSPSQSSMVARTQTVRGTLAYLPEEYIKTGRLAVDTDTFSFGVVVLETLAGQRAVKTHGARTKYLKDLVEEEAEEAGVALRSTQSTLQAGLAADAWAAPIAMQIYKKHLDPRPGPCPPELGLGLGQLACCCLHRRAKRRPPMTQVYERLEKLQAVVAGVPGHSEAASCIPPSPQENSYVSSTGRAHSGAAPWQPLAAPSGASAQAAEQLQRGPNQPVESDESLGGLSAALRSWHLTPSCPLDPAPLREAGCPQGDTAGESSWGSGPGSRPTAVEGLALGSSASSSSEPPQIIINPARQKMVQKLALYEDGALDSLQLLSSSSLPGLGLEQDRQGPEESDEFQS
Chain of RAC-gamma serine/threonine-protein kinase (Q9Y243 whole entry): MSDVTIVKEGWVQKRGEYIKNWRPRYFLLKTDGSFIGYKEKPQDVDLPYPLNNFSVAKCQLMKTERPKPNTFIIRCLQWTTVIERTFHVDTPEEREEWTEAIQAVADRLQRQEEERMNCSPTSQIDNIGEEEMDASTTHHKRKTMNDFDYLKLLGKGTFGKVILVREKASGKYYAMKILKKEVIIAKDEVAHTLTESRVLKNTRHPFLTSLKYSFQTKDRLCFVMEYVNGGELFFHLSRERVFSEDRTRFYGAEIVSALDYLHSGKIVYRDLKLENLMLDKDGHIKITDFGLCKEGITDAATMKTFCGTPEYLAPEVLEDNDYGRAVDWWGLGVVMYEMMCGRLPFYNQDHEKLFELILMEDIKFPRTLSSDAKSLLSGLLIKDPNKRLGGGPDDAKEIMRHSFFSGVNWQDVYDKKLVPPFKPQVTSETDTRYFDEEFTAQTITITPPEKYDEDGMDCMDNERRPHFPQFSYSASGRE
Chain of Epithelial discoidin domain-containing receptor 1 (Q08345 whole entry, the tested form may be a part): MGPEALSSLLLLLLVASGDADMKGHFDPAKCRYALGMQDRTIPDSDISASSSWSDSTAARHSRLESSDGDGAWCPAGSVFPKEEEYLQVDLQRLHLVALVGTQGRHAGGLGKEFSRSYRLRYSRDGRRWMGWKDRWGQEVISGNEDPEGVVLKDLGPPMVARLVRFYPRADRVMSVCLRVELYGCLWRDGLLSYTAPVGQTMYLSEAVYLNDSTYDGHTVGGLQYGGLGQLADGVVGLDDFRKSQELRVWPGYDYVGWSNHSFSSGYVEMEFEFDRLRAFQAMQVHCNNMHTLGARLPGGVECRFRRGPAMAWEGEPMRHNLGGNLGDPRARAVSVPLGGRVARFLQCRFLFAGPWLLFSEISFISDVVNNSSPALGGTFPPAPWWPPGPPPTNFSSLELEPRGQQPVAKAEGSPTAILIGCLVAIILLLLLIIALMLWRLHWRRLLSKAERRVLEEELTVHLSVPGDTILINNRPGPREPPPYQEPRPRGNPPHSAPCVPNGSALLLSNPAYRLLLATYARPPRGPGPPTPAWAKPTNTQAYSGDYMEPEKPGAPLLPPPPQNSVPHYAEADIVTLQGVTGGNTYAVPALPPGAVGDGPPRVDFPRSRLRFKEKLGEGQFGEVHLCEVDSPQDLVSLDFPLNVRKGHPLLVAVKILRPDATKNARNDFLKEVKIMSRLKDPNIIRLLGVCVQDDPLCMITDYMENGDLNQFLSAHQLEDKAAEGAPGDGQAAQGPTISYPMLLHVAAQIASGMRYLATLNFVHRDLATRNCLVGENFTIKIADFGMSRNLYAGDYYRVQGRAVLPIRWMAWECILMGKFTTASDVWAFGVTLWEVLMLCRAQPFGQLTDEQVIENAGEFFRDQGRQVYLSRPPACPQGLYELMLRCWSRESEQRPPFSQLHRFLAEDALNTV

Compound	Kd [1]	Kd [2]	Kd [3]	Kd [6]	Kd [7]	Kd [8]	Kd [9]	Kd [10]	Kd [4]	Kd [5]
C=CCn1c(=O)c2cnc(Nc3ccc(N4CCN(C)CC4)cc3)nc2n1-c1cccc(C(C)(C)O)n1 [ADAVOSERTIB]	> 30 µM (inactive)	> 30 µM (inactive)	> 30 µM (inactive)	> 30 µM (inactive)	1.91 µM (active)	> 30 µM (inactive)	> 30 µM (inactive)	–	> 30 µM (inactive)	> 30 µM (inactive)
CN(C)C/C=C/C(=O)Nc1cc2c(Nc3ccc(F)c(Cl)c3)ncnc2cc1O[C@H]1CCOC1 [AFATINIB]	–	–	–	> 30 µM (inactive)	> 30 µM (inactive)	–	–	–	–	–
NC[C@@](O)(c1ccc(Cl)cc1)c1ccc(-c2cn[nH]c2)cc1 [AT-13148]	> 30 µM (inactive)	> 30 µM (inactive)	> 30 µM (inactive)	> 30 µM (inactive)	> 30 µM (inactive)	> 30 µM (inactive)	–	> 30 µM (inactive)	0.014 µM (active)	> 30 µM (inactive)
CCN(CCCOc1ccc2c(Nc3cc(CC(=O)Nc4cccc(F)c4)n[nH]3)ncnc2c1)CCOP(=O)(O)O [BARASERTIB]	> 30 µM (inactive)	–	> 30 µM (inactive)	> 30 µM (inactive)	> 30 µM (inactive)	> 30 µM (inactive)	> 30 µM (inactive)	–	> 30 µM (inactive)	> 30 µM (inactive)
COc1ccc(-c2ccc3ncc4c(c3c2)n(-c2ccc(N3CCNCC3)c(C(F)(F)F)c2)c(=O)n4C)cn1 [BGT-226 FREE BASE]	> 30 µM (inactive)	> 30 µM (inactive)	–	> 30 µM (inactive)	> 30 µM (inactive)	> 30 µM (inactive)	> 30 µM (inactive)	> 30 µM (inactive)	> 30 µM (inactive)	> 30 µM (inactive)
COc1cc2c(Oc3ccc4[nH]c(C)cc4c3F)ncnc2cc1OCCCN1CCCC1 [CEDIRANIB]	–	–	–	> 30 µM (inactive)	2.31 µM (active)	–	–	–	–	–
CC1(COc2ccc3c(c2)ncn3-c2ccc3cccc(N4CCC(N)CC4)c3n2)COC1 [CRENOLANIB]	3.43 µM (active)	> 30 µM (inactive)	0.107 µM	> 30 µM (inactive)	> 30 µM (inactive)	–	> 30 µM (inactive)	> 30 µM (inactive)	> 30 µM (inactive)	> 30 µM (inactive)
Cn1c(=O)n(-c2ccc(C(C)(C)C#N)cc2)c2c3cc(-c4cnc5ccccc5c4)ccc3ncc21 [DACTOLISIB]	> 30 µM (inactive)	> 30 µM (inactive)	> 30 µM (inactive)	> 30 µM (inactive)	> 30 µM (inactive)	–	> 30 µM (inactive)	–	> 30 µM (inactive)	> 30 µM (inactive)
O=S(=O)(c1cccc2cnccc12)N1CCCNCC1 [FASUDIL]	> 30 µM (inactive)	> 30 µM (inactive)	> 30 µM (inactive)	> 30 µM (inactive)	> 30 µM (inactive)	> 30 µM (inactive)	–	–	–	> 30 µM (inactive)
C[C@]1(O)C[C@@H](c2nc(-c3ccc4ccc(-c5ccccc5)nc4c3)c3c(N)nccn32)C1 [LINSITINIB]	> 30 µM (inactive)	> 30 µM (inactive)	> 30 µM (inactive)	> 30 µM (inactive)	> 30 µM (inactive)	–	–	–	> 30 µM (inactive)	> 30 µM (inactive)
N#CCNC(=O)c1ccc(-c2ccnc(Nc3ccc(N4CCOCC4)cc3)n2)cc1 [MOMELOTINIB]	–	–	–	> 30 µM (inactive)	> 30 µM (inactive)	> 30 µM (inactive)	> 30 µM (inactive)	> 30 µM (inactive)	> 30 µM (inactive)	> 30 µM (inactive)
CC1(C)CNc2cc(NC(=O)c3cccnc3NCc3ccncc3)ccc21 [MOTESANIB]	–	–	–	> 30 µM (inactive)	> 30 µM (inactive)	–	–	–	–	–
CN(c1ncccc1CNc1nc(Nc2ccc3c(c2)CC(=O)N3)ncc1C(F)(F)F)S(C)(=O)=O [PF-00562271]	> 30 µM (inactive)	–	–	> 30 µM (inactive)	> 30 µM (inactive)	–	–	–	> 30 µM (inactive)	> 30 µM (inactive)
CC(C)CC(=O)Nc1[nH]nc2c1CN(C(=O)C1CCN(C)CC1)C2(C)C [PHA-793887]	> 30 µM (inactive)	> 30 µM (inactive)	–	> 30 µM (inactive)	> 30 µM (inactive)	–	> 30 µM (inactive)	> 30 µM (inactive)	> 30 µM (inactive)	> 30 µM (inactive)
C=CC(=O)Nc1cccc(Nc2nc(Nc3ccc(N4CCN(C(C)=O)CC4)cc3OC)ncc2C(F)(F)F)c1 [ROCILETINIB]	> 30 µM (inactive)	> 30 µM (inactive)	> 30 µM (inactive)	> 30 µM (inactive)	> 30 µM (inactive)	> 30 µM (inactive)	> 30 µM (inactive)	> 30 µM (inactive)	–	> 30 µM (inactive)
Cn1cnc2c(F)c(Nc3ccc(Br)cc3Cl)c(C(=O)NOCCO)cc21 [SELUMETINIB]	–	–	–	> 30 µM (inactive)	> 30 µM (inactive)	–	–	–	–	–
COc1cc2c(N3CCN(C(=O)Nc4ccc(OC(C)C)cc4)CC3)ncnc2cc1OCCCN1CCCCC1 [TANDUTINIB]	–	–	–	> 30 µM (inactive)	–	–	–	–	–	–
CNC(=O)c1cc(COc2nnc(Nc3ccc(Cl)cc3)c3ccoc23)ccn1 [TELATINIB]	> 30 µM (inactive)	> 30 µM (inactive)	–	> 30 µM (inactive)	> 30 µM (inactive)	> 30 µM (inactive)	> 30 µM (inactive)	> 30 µM (inactive)	> 30 µM (inactive)	> 30 µM (inactive)
CNC(=O)c1cccc(-c2ccc3c(N4CCOC[C@@H]4C)nc(N4CCOC[C@@H]4C)nc3n2)c1 [VISTUSERTIB]	> 30 µM (inactive)	> 30 µM (inactive)	> 30 µM (inactive)	> 30 µM (inactive)	> 30 µM (inactive)	> 30 µM (inactive)	> 30 µM (inactive)	> 30 µM (inactive)	> 30 µM (inactive)	–

The next lines start with results.

Kd [1]	Kd [2]	Kd [3]	Kd [6]	Kd [7]	Kd [8]	Kd [9]	Kd [10]	Compound	Kd [4]	Kd [5]
–	–	–	> 30 µM (inactive)	> 30 µM (inactive)	–	> 30 µM (inactive)	–	C[C@@]1(C(=O)Nc2ccc(F)nc2)CCCN1c1nc(Nc2cc(C3CC3)n[nH]2)c2cccn2n1 [BMS-754807]	–	–
> 30 µM (inactive)	> 30 µM (inactive)	> 30 µM (inactive)	> 30 µM (inactive)	> 30 µM (inactive)	–	> 30 µM (inactive)	> 30 µM (inactive)	CCOc1ccn(-c2ccc(F)cc2)c(=O)c1C(=O)Nc1ccc(Oc2ccnc(N)c2Cl)c(F)c1 [BMS-777607]	> 30 µM (inactive)	0.039 µM (active)
> 30 µM (inactive)	> 30 µM (inactive)	> 30 µM (inactive)	> 30 µM (inactive)	0.035 µM (active)	> 30 µM (inactive)	–	> 30 µM (inactive)	Cc1cc(C(=O)Nc2cc(Oc3ccc4nc(NC(=O)C5CC5)cn4n3)ccc2C)n(C)n1 [TAK-593]	> 30 µM (inactive)	14.7 µM (active)
